Measured values reported in the NIST ThermoML archive (doi:10.1016/j.fluid.2016.06.011).

Conditions: Liquid; for vapor or sublimation pressure: Closed cell (Static) method; for mass density: 101.33 kPa, Vibrating tube method

OCC(F)(F)C(F)(F)C(F)(F)F [2,2,3,3,4,4,4-heptafluorobutanol]
Conditions | mass density [kg/m3] | vapor or sublimation pressure [kPa]
278.14 K | – | 0.7213
278.15 K | 1633.59 | –
279.15 K | 1631.74 | –
280.15 K | 1629.87 | –
281.15 K | 1627.99 | –
282.15 K | 1626.11 | –
283.1 K | – | 1.047
283.15 K | 1624.23 | –
284.15 K | 1622.34 | –
285.15 K | 1620.44 | –
286.15 K | 1618.54 | –
287.15 K | 1616.63 | –
288.08 K | – | 1.495
288.15 K | 1614.73 | –
289.15 K | 1612.81 | –
290.15 K | 1610.89 | –
291.15 K | 1608.97 | –
292.15 K | 1607.04 | –
293.08 K | – | 2.117
293.15 K | 1605.11 | –
294.15 K | 1603.16 | –
295.15 K | 1601.22 | –
296.15 K | 1599.26 | –
297.15 K | 1597.31 | –
298.1 K | – | 2.965
298.15 K | 1595.34 | –
299.15 K | 1593.37 | –
300.15 K | 1591.39 | –
301.15 K | 1589.41 | –
302.15 K | 1587.41 | –
303.07 K | – | 4.086
303.15 K | 1585.41 | –
304.15 K | 1583.41 | –
305.15 K | 1581.4 | –
306.15 K | 1579.38 | –
307.15 K | 1577.36 | –
308.04 K | – | 5.551
308.15 K | 1575.32 | –
309.14 K | 1573.28 | –
310.15 K | 1571.23 | –
311.15 K | 1569.18 | –
312.15 K | 1567.12 | –
313.03 K | – | 7.473
313.14 K | 1565.05 | –
314.15 K | 1562.97 | –
315.15 K | 1560.89 | –
316.15 K | 1558.79 | –
317.15 K | 1556.69 | –
317.98 K | – | 9.905
318.15 K | 1554.58 | –
319.14 K | 1552.46 | –
320.15 K | 1550.34 | –
321.15 K | 1548.2 | –
322.14 K | 1546.06 | –
322.95 K | – | 13.14
323.14 K | 1543.91 | –
324.14 K | 1541.75 | –
325.15 K | 1539.58 | –
326.14 K | 1537.4 | –
327.14 K | 1535.21 | –
327.91 K | – | 17.26
328.15 K | 1533.02 | –
329.15 K | 1530.81 | –
330.14 K | 1528.6 | –
331.14 K | 1526.38 | –
332.15 K | 1524.14 | –
333.14 K | 1521.91 | –
334.14 K | 1519.66 | –
335.14 K | 1517.4 | –
336.14 K | 1515.13 | –
337.14 K | 1512.85 | –
338.14 K | 1510.57 | –
339.14 K | 1508.28 | –
340.14 K | 1505.97 | –
341.14 K | 1503.65 | –
342.14 K | 1501.33 | –
343.14 K | 1498.99 | –
344.15 K | 1496.65 | –
345.15 K | 1494.29 | –
346.15 K | 1491.93 | –
347.15 K | 1489.55 | –
348.14 K | 1487.16 | –
349.14 K | 1484.77 | –
350.14 K | 1482.37 | –
351.14 K | 1479.94 | –
352.14 K | 1477.52 | –
353.14 K | 1475.08 | –
